{"source": "patent US8362018B2", "about": "“Substituted imidazo[1,2-a]pyrazine compounds useful for the treatment of viral infections” (Biofocus DPI, Ltd., priority 2007, dated 2013)", "key": {"Huh7": {"test_system": "Huh7", "assay": "cytotoxicity measurement (CC50), Table 13", "type": "cell-based"}, "HCV replicon": {"test_system": "HCV replicon", "assay": "anti-viral assay (EC50), Table 13", "type": "cell-based", "conditions": "anti-viral assays", "excerpt": "The ability of a compound to inhibit HCV replication can be measured in vitro or using animal models using models and assays well known to those of skill in the art (e.g. Pietschmann et al, Clin Liver Dis. 7(1)c23-43, 2003). In vitro techniques for measuring the ability of a compound to inhibit HCV replication involve using HCV or an HCV replicon. Because HCV is difficult to grow in culture, particular in vitro techniques employ an HCV replicon.\nAn HCV replicon is an RNA molecule able to autonomously replicate in a cultured cell, such as Huh7. The HCV replicon expresses the HCV derived components of the replication machinery and contains cis-elements required for replication in a cultured cell. […]"}, "[1]": {"assay": "cytotoxicity CC50 in HeLa cells (Table 15)", "type": "cell-based", "conditions": "human, HRV-2 column"}, "HeLa cells": {"test_system": "HeLa cells", "assay": "cytotoxicity CC50 in HeLa cells (Table 15)", "type": "cell-based"}, "[2]": {"assay": "cytotoxicity measurement (CC50), Table 13", "type": "cell-based", "conditions": "human, Huh7 cells"}, "HRV-2": {"test_system": "HRV-2", "assay": "antiviral activity, HRV-2 in HeLa cells (Table 15)", "type": "cell-based, human rhinoviruses (HRV)", "conditions": "Rhinovirus A, HRV2; HRV-2 (HeLa cells)"}, "HRV clinical isolate": {"test_system": "HRV clinical isolate", "assay": "antiviral activity, HRV clinical isolate in HeLa cells (Table 15)", "type": "cell-based, human rhinoviruses (HRV)", "conditions": "Enterovirus"}, "HRV-14": {"test_system": "HRV-14", "assay": "antiviral activity, HRV-14 in HeLa cells (Table 15)", "type": "cell-based, human rhinovirus 14 (HRV-14)", "conditions": "Rhinovirus B, HRV14; HRV-14 (HeLa cells)"}, "[3]": {"assay": "cytotoxicity CC50 in Huh7 cells (Table 14)", "type": "cell-based", "conditions": "human, HCV column"}, "[4]": {"assay": "cytotoxicity CC50 in MT-4 cells (Table 14)", "type": "cell-based", "conditions": "human, HIV column"}, "Influenza": {"test_system": "Influenza", "assay": "antiviral profiling, Influenza in MDCK cells (Table 14)", "type": "cell-based"}, "Sb-1": {"test_system": "Sb-1", "assay": "microbe, parasite or virus in culture", "type": "cell-based, poliovirus", "conditions": "Enterovirus C, Vero"}, "Vero": {"test_system": "Vero", "assay": "cytotoxicity CC50 in Vero cells (Table 14)"}, "in vitro [5]": {"assay": "in vitro", "conditions": "Syrian hamster"}, "HIV": {"test_system": "HIV", "assay": "antiviral profiling, HIV in MT-4 cells (Table 14)", "type": "cell-based", "conditions": "Human immunodeficiency virus 1, MT4"}, "CVB-2": {"test_system": "CVB-2", "assay": "antiviral profiling, CVB-2 in Vero cells (Table 14)", "type": "cell-based, coxsackie B virus"}, "HSV-1": {"test_system": "HSV-1", "assay": "antiviral profiling, HSV-1 in Vero cells (Table 14)", "type": "cell-based", "conditions": "Human alphaherpesvirus 1; HSV-1, Vero cells"}, "in vitro [6]": {"assay": "in vitro", "conditions": "African green monkey"}, "[7]": {"assay": "cytotoxicity CC50 in MDCK cells (Table 14)", "conditions": "dog"}, "VSV": {"test_system": "VSV", "assay": "microbe, parasite or virus in culture", "type": "cell-based", "conditions": "Vesicular stomatitis virus, Vero"}, "RSV": {"test_system": "RSV", "assay": "antiviral profiling, RSV in Vero cells (Table 14)", "type": "cell-based", "conditions": "human respiratory syncytial virus"}, "YFV": {"test_system": "YFV", "assay": "microbe, parasite or virus in culture", "type": "cell-based", "conditions": "Yellow fever virus, BHK-21"}, "HCV": {"test_system": "HCV", "assay": "antiviral profiling, HCV in Huh7 cells (Table 14)", "type": "cell-based", "conditions": "Hepatitis C virus, Huh-7"}}, "data": [{"compound": "NS(=O)(=O)c1cccc(CNc2nccn3c(-c4ccc(O)cc4)cnc23)c1", "note": "[Compound 95, 3-{[3-(4-Hydroxy-phenyl)-imidazol[1,2-a]pyrazin-8-ylamino]-methyl}-benzenesulfonamide]", "values": [{"measurement": "CC50", "setting": "Huh7", "result": "< 35", "unit": "µM"}, {"measurement": "EC50", "setting": "HCV replicon", "result": "1 to 20", "unit": "µM"}]}, {"compound": "Cc1nc2c(NCc3ccc(S(N)(=O)=O)cc3)nccn2c1-c1ccc(O)c(F)c1", "note": "[Compound 106]", "values": [{"measurement": "CC50", "setting": "[1]", "result": "> 35", "unit": "µg/mL"}, {"measurement": "CC50(μg/mL)", "setting": "HeLa cells; HRV clinical isolate column", "result": "* (>35 μg/mL)"}, {"measurement": "CC50(μg/mL)", "setting": "HeLa cells; HRV-14 column", "result": "* (>35 μg/mL)"}, {"measurement": "CC50", "setting": "[2]", "result": "> 35", "unit": "µM"}, {"measurement": "EC50", "setting": "HRV-2", "result": "< 1", "unit": "µg/mL"}, {"measurement": "EC50", "setting": "HRV clinical isolate", "result": "< 1", "unit": "µg/mL"}, {"measurement": "EC50", "setting": "HCV replicon; Hepatitis C virus", "result": "< 1", "unit": "µM"}, {"measurement": "EC50", "setting": "HRV-14", "result": "< 1", "unit": "µg/mL"}]}, {"compound": "NS(=O)(=O)c1ccc(CNc2nccn3c(-c4ccc(O)cc4)cnc23)cc1", "note": "[Compound 1, 4-{[3-(4-Hydroxy-phenyl)-imidazol[1,2-a]pyrazin-8-ylamino]-methyl}-benzenesulfonamide]", "values": [{"measurement": "CC50", "setting": "[3]", "result": "> 35", "unit": "µM"}, {"measurement": "CC50", "setting": "[1]", "result": "> 35", "unit": "µg/mL"}, {"measurement": "CC50(μg/mL)", "setting": "HeLa cells; HRV clinical isolate column", "result": "* (>35 μg/mL)"}, {"measurement": "CC50(μg/mL)", "setting": "HeLa cells; HRV-14 column", "result": "* (>35 μg/mL)"}, {"measurement": "CC50", "setting": "[4]", "result": "< 35", "unit": "µM"}, {"measurement": "EC50", "setting": "Influenza", "result": "> 20", "unit": "µM"}, {"measurement": "EC50", "setting": "Sb-1", "result": "< 1", "unit": "µM"}, {"measurement": "CC50", "setting": "[2]", "result": "> 35", "unit": "µM"}, {"measurement": "CC50", "setting": "Vero; HSV-1", "result": "> 35", "unit": "µM"}, {"measurement": "CC50", "setting": "Vero; RSV column", "result": "> 35", "unit": "µM"}, {"measurement": "CC50", "setting": "Vero; Sb-1 column", "result": "> 35", "unit": "µM"}, {"measurement": "EC50", "setting": "HRV-2", "result": "< 1", "unit": "µg/mL"}, {"measurement": "CC50", "setting": "in vitro [5]", "result": "< 35", "unit": "µM"}, {"measurement": "EC50", "setting": "HIV", "result": "1 to 20", "unit": "µM"}, {"measurement": "EC50", "setting": "CVB-2", "result": "< 1", "unit": "µM"}, {"measurement": "EC50", "setting": "HSV-1", "result": "> 20", "unit": "µM"}, {"measurement": "CC50", "setting": "in vitro [6]", "result": "> 35", "unit": "µM"}, {"measurement": "CC50", "setting": "in vitro [6]; Vero cells", "result": "> 35", "unit": "µM"}, {"measurement": "CC50", "setting": "[7]", "result": "> 35", "unit": "µM"}, {"measurement": "EC50", "setting": "HRV clinical isolate", "result": "< 1", "unit": "µg/mL"}, {"measurement": "EC50", "setting": "VSV", "result": "> 20", "unit": "µM"}, {"measurement": "EC50", "setting": "RSV", "result": "> 20", "unit": "µM"}, {"measurement": "EC50", "setting": "HCV replicon; Hepatitis C virus", "result": "< 1", "unit": "µM"}, {"measurement": "EC50", "setting": "YFV", "result": "1 to 20", "unit": "µM"}, {"measurement": "EC50", "setting": "HRV-14", "result": "< 1", "unit": "µg/mL"}, {"measurement": "EC50", "setting": "HCV", "result": "< 1", "unit": "µM"}]}]}
